Values after ≈ are worked out from the molar mass of the structure shown.
Legend:
S. aureus ATCC 29123 = assay: Thigh infection model in neutropenic mice; format: in vivo, female CD-1 mice; details: thigh muscle, 10 mg/kg IV BID (2 and 8 h post-infection), 24 hr post infection
Method: The antimicrobial activity of compounds 23 and 60 against S. aureus ATCC 29123 was tested in vivo using a thigh infection model in neutropenic mice. Briefly, animals (female CD-1 mice, 5 weeks of age) were made neutropenic prior to S. aureus thigh infection by pre-treating with cyclophosphamide (150 mg/kg, IP, −4 and −1 days pre-inoculation). On the inoculation day (day 0), mice were infected with S. aureus at time zero (t=0). Animals were individually monitored for adverse reactions for 30 min post-infection.
Compounds 23 and 60 were prepared for IV administration and for oral administration. Vancomycin was administered as a solution in PBS. The test compounds were administered at 2 and 8 hours post-infection and animals were individually monitored for adverse reactions for 30 min after each injection. All animals were then monitored hourly from 20 hours post infection to the endpoint (t=24 hr post infection). At the indicated timepoint, animals were sacrificed and the injected thigh collected.
Quantitative enumeration of bacterial load was determined by plating serial dilutions from homogenized thigh muscles. The plates were incubated and colony counts were determined. CFU per mL calculated was calculated.

S. aureus (ATCC29213) = assay: In vitro susceptibility, broth microdilution (MIC); format: cell-based; details: Staphylococcus aureus; S. aureus ATCC29213; 18-24 h, 37 C; read-out: Antimicrobial activity (MIC) S. aureus ATCC29213
In short: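 CLSI 2-fold serial broth microdilution; K. pneumoniae C238 grown in L-broth, S. aureus ATCC 29213 in Mueller Hinton broth, plates incubated 18–24 h at 37 °C. MIC taken as lowest concentration giving complete growth inhibition by OD600 versus compound-free wells, background-subtracted.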

MRSA (ATCC BAA-1762) = assay: In vitro susceptibility, broth microdilution (MIC); format: cell-based, methicillin resistant S. aureus; details: Staphylococcus aureus; MRSA ATCC BAA-1762; read-out: Antimicrobial activity (MIC) MRSA ATCC BAA1762
In short: (§1)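 MIC determined by CLSI 2-fold broth microdilution in cation-adjusted Mueller–Hinton broth at ~2.5×10^5 CFU/ml, final compound 0.031–64 μg/ml, 18–24 h at 37 °C. MIC is the lowest concentration giving complete growth inhibition by background-corrected OD600 versus compound-free wells; duplicate or triplicate wells, replicated at least twice.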

VRE#2 (2010A) = assay: In vitro susceptibility, broth microdilution (MIC); format: cell-based, vancomycin resistant Enterococci; details: VRE#2 (2010A); read-out: Antimicrobial activity (MIC) VRE#2
In short: as §1

With `CN(C)CCOC(=O)c1c(/C=C/c2ccc(Cl)cc2)[nH]c2cc(Br)ccc12` [Compound 60, (E)-2-(Dimethylamino)ethyl 6-bromo-2-(4-chlorostyryl)-1H-indole-3-carboxylate] the “reduction in CFU” value (S. aureus ATCC 29123) was 3 log and the MIC (S. aureus (ATCC29213)) was 4 µg/mL (≈ 8.93 µM).

`NCCNC(=O)c1c(-c2cc3cc(Cl)ccc3[nH]2)[nH]c2cc(Br)ccc12` [Compound 206, N-(2-Aminoethyl)-6-bromo-5′-chloro-1H,1′H-[2,2′-biindole]-3-carboxamide] showed an MIC (MRSA (ATCC BAA-1762)) of 8 µg/mL (≈ 18.5 µM), an MIC (VRE#2 (2010A)) of 4 µg/mL (≈ 9.27 µM) and an MIC (S. aureus (ATCC29213)) of 8 µg/mL (≈ 18.5 µM).

Work on `NCCOc1cc2[nH]c(-c3cc4ccc(Br)cc4[nH]3)cc2cc1Cl` [Compound 201, 2-((6′-Bromo-5-chloro-1H,1′H-[2,2′-biindol]-6-yl)oxy)ethan-1-amine] yielded an MIC (MRSA (ATCC BAA-1762)) of 4 µg/mL (≈ 9.88 µM), an MIC (VRE#2 (2010A)) of 4 µg/mL (≈ 9.88 µM) and an MIC (S. aureus (ATCC29213)) of 4 µg/mL (≈ 9.88 µM).

`C[N+](C)(C)CCON=C(c1c(-c2cc3cc(Cl)ccc3[nH]2)[nH]c2cc(Br)ccc12)C(F)(F)F` (racemic) [Compound 221, 2-(((1-(6-Bromo-5′-chloro-1H,1′H-[2,2′-biindol]-3-yl)-2,2,2-trifluoroethylidene)amino)oxy)-N,N,N-trimethylethan-1-aminium Iodide] was tested, and the MIC (MRSA (ATCC BAA-1762)) was 2 µg/mL, the MIC (VRE#2 (2010A)) was 2 µg/mL and the MIC (S. aureus (ATCC29213)) was 1 µg/mL.
